This passage reports IC50 results from patent publication US20240124442A1, “TRICYCLIC-AMIDO-BICYCLIC PRMT5 INHIBITORS” (AMGEN INC., priority 2021, published 2024).

One experiment relates to HCT116 MTAP null cells. Briefly: HCT116 MTAP null cell line proliferation / cell viability (CellTiter-Glo, 6 days). It counts as cell-based. Particulars: 144 h; HCT116 MTAP null cells, 6 days treatment, CellTiter-Glo cell viability; read-out: HCT-116 MTAP null IC50. The method, boiled down: (§1)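 WT vs MTAP-null HCT116, 6 d drug, CTG readout. 1:3 × 8–9 pts (top 1/10 μM) or 1:2 × 22 pts (top 10/50 μM). IC50 by 4PL or Hill −1 fit.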
Background: ATP-based viability assays read luminescence as a measure of living cells.

The next experiment has as its system HCT116 WT cells. Kind of experiment: HCT116 WT (parent) cell line proliferation / cell viability (CellTiter-Glo, 6 days). It counts as cell-based. Conditions: Homo sapiens, HCT-116, 144 h, 6 days treatment. Put shortly: as §1

The structures appear in SMILES notation.

In the case of `CN(C(=O)c1cc2c3c(c(N)nc2cc1F)COC3)[C@@H]1COc2cc(-c3ccc(S(F)(F)(F)(F)F)cc3)ccc21` [Example 667, 4-amino-7-fluoro-N-methyl-N-((3S)-6-(4-(pentafluoro-lambda~6 ~- sulfanyl)phenyl)-2,3-dihydro-1-benzofuran-3-yl)-1,3-dihydrofuro[3,4-c]quinoline-8-carboxamide], the IC50 (in general, the midpoint of a concentration-inhibition curve) in the experiment with HCT116 MTAP null cells was 0.383 µM; in the experiment with HCT116 WT cells it was 7.07 µM.

Take `CN(C(=O)c1ccc2nc(N)c3cnn(C)c3c2c1)[C@@H]1COc2cc(-c3ccc(S(F)(F)(F)(F)F)cc3)ccc21` [Example 668, 4-amino-N,1-dimethyl-N-((3S)-6-(4-(pentafluoro-lambda~6~- sulfanyl)phenyl)-2,3-dihydro-1-benzofuran-3-yl)-1H-pyrazolo[4,3-c]quinoline-8-carboxamide]: the figures for the 50% inhibitory concentration (IC50) in the experiment on HCT116 MTAP null cells and in the experiment on HCT116 WT cells were 0.085 µM and 2.92 µM, respectively.

`COc1ccc2c(c1)OC[C@H]2N(C)C(=O)c1ccc2nc(N)c3cnn(C)c3c2c1` [Example 671, (S)-4-amino-N-(6-methoxy-2,3-dihydrobenzofuran-3-yl)-N,1-dimethyl-1H-pyrazolo[4,3-c]quinoline-8-carboxamide]: the IC50 with HCT116 MTAP null cells stood at 0.034 µM; in the experiment with HCT116 WT cells it was 4.29 µM.

`CN(C(=O)c1ccc2nc(N)c3cnn(C)c3c2c1)[C@@H]1COc2cc(OC3CC3)ccc21` [Example 672, (S)-4-amino-N-(6-cyclopropoxy-2,3-dihydrobenzofuran-3-yl)-N,1-dimethyl-1H-pyrazolo[4,3-c]quinoline-8-carboxamide 2,2,2-trifluoroacetate]: the values for the IC50 in the experiment with HCT116 MTAP null cells and in the experiment on HCT116 WT cells were 0.044 µM and 3.52 µM, respectively.

Regarding `CN(C(=O)c1ccc2nc(N)c3cnn(C)c3c2c1)[C@@H]1COc2ccccc21` [Example 673, (S)-4-amino-N-(2,3-dihydrobenzofuran-3-yl)-N,1-dimethyl-1H-pyrazolo[4,3-c]quinoline-8-carboxamide 2,2,2-trifluoroacetate], the IC50 with HCT116 MTAP null cells worked out at 0.12 µM; in the experiment with HCT116 WT cells it was 13.1 µM.

For the compound `CCOc1ccc2c(c1)OC[C@H]2N(C)C(=O)c1cc2c3c(c(N)nc2cn1)COC3` [Example 674, 4-amino-N-((3S)-6-ethoxy-2,3-dihydro-1-benzofuran-3-yl)-N-methyl-1,3-dihydrofuro[3,4-c][1,7]naphthyridine-8-carboxamide], the IC50 in the experiment on HCT116 MTAP null cells was 0.156 µM; in the experiment on HCT116 WT cells it was 8.61 µM.

For `CCOc1ccc2c(c1)OC[C@H]2N(C)C(=O)c1ccc2nc(N)c3cnn(C)c3c2c1` [Example 675, 4-amino-N-((3S)-6-ethoxy-2,3-dihydro-1-benzofuran-3-yl)-N,1-dimethyl-1H-pyrazolo[4,3-c]quinoline-8-carboxamide], the values for the IC50 with HCT116 MTAP null cells and in the experiment with HCT116 WT cells were 0.025 µM and 2.75 µM, respectively.

As for `CN(C(=O)c1ccc2nc(N)c3cnn(C)c3c2c1)[C@@H]1COc2cc(OC3CCC3)ccc21` [Example 676, 4-amino-N-((3S)-6-(cyclobutyloxy)-2,3-dihydro-1-benzofuran-3-yl)-N,1-dimethyl-1H-pyrazolo[4,3-c]quinoline-8-carboxamide], the half-maximal inhibitory concentration (IC50) worked out at 0.04 µM in the experiment with HCT116 MTAP null cells and 2.59 µM with HCT116 WT cells.

As for `CN(C(=O)c1ccc2nc(N)c3cnn(C)c3c2c1)[C@@H]1COc2cc(OC3COC3)ccc21` [Example 677, 4-amino-N,1-dimethyl-N-((3S)-6-(3-oxetanyloxy)-2,3-dihydro-1-benzofuran-3-yl)-1H-pyrazolo[4,3-c]quinoline-8-carboxamide], the IC50 with HCT116 MTAP null cells stood at 0.137 µM; with HCT116 WT cells, 9.81 µM.

As to `COCCOc1ccc2c(c1)OC[C@H]2N(C)C(=O)c1ccc2nc(N)c3cnn(C)c3c2c1` [Example 678, 4-amino-N-((3S)-6-(2-methoxyethoxy)-2,3-dihydro-1-benzofuran-3-yl)-N,1-dimethyl-1H-pyrazolo[4,3-c]quinoline-8-carboxamide], the figures for the IC50 in the experiment on HCT116 MTAP null cells and with HCT116 WT cells were 0.029 µM and 2.78 µM, respectively.

As for `Cc1ccc2c(n1)COC[C@H]2N(C)C(=O)c1ccc2nc(N)c3cnn(C)c3c2c1` [Example 679, (S)-4-amino-N,1-dimethyl-N-(2-methyl-5,8-dihydro-6H-pyrano[3,4-b]pyridin-5-yl)-1H-pyrazolo[4,3-c]quinoline-8-carboxamide], the IC50 with HCT116 MTAP null cells is 0.026 µM; in the experiment with HCT116 WT cells, 2.27 µM.

For the compound `Cc1ccc2c(c1)OC[C@H]2N(C)C(=O)c1ccc2nc(N)c3cnn(C)c3c2c1` [Example 683, 4-amino-N,1-dimethyl-N-((3S)-6-methyl-2,3-dihydro-1-benzofuran-3-yl)-1H-pyrazolo[4,3-c]quinoline-8-carboxamide], the IC50 with HCT116 MTAP null cells worked out at 0.038 µM; in the experiment with HCT116 WT cells it was 3.58 µM.

For the compound `CN(C(=O)c1ccc2nc(N)c3cnn(C)c3c2c1)[C@@H]1COCc2nc(C3CC3)ccc21` [Example 684, 4-amino-N-((5S)-2-cyclopropyl-5,8-dihydro-6H-pyrano[3,4-b]pyridin-5-yl)-N,1-dimethyl-1H-pyrazolo[4,3-c]quinoline-8-carboxamide], the IC50 in the experiment with HCT116 MTAP null cells is 0.006 µM; in the experiment with HCT116 WT cells, 0.227 µM.

For `COC(=O)c1ccc2c(c1)OC[C@H]2N(C)C(=O)c1ccc2nc(N)c3cnn(C)c3c2c1` [Example 685, methyl (S)-3-(4-amino-N,1-dimethyl-1H-pyrazolo[4,3-c]quinoline-8-carboxamido)-2,3-dihydrobenzofuran-6-carboxylate], the IC50 with HCT116 MTAP null cells was found to be 0.022 µM; in the experiment on HCT116 WT cells, 1.52 µM.

Regarding `CN(C(=O)c1ccc2nc(N)c3cnn(C)c3c2c1)[C@@H]1COc2cc(CO)ccc21` [Example 686, (S)-4-amino-N-(6-(hydroxymethyl)-2,3-dihydrobenzofuran-3-yl)-N,1-dimethyl-1H-pyrazolo[4,3-c]quinoline-8-carboxamide], the IC50 was 0.129 µM in the experiment on HCT116 MTAP null cells and 11.4 µM in the experiment on HCT116 WT cells.

Turning to `CN(C(=O)c1ccc2nc(N)c3cnn(C)c3c2c1)[C@@H]1COc2cc(Cl)ccc21` [Example 687, (S)-4-amino-N-(6-chloro-2,3-dihydrobenzofuran-3-yl)-N,1-dimethyl-1H-pyrazolo[4,3-c]quinoline-8-carboxamide 2,2,2-trifluoroacetate], the 50% inhibitory concentration (IC50) was 0.012 µM with HCT116 MTAP null cells and 0.846 µM in the experiment on HCT116 WT cells.

On to `CN(C(=O)c1ccc2nc(N)c3cnn(C)c3c2c1)[C@@H]1COc2cc(C3CCOCC3)ccc21` [Example 688, (S)-4-amino-N,1-dimethyl-N-(6-(tetrahydro-2H-pyran-4-yl)-2,3-dihydrobenzofuran-3-yl)-1H-pyrazolo[4,3-c]quinoline-8-carboxamide], for which the IC50 came to 0.005 µM with HCT116 MTAP null cells and 0.431 µM in the experiment on HCT116 WT cells.

As to `CC(=O)N1CC=C(c2ccc3c(c2)OCC3N(C)C(=O)c2ccc3nc(N)c4c(c3c2)COC4)CC1` (stereo not drawn) [Example 689, N-(6-(1-acetyl-1,2,3,6-tetrahydropyridin-4-yl)-2,3-dihydrobenzofuran-3-yl)-4-amino-N-methyl-1,3-dihydrofuro[3,4-c]quinoline-8-carboxamide], the IC50 with HCT116 MTAP null cells worked out at 0.101 µM; with HCT116 WT cells, 4.54 µM.
